For 1 compound, EC50 results are on record in US5770382A, “Tricyclic retinoids, methods for their production and use” (Ligand Pharmaceuticals, Inc., priority 1995, dated 1998).

Holding throughout (assay type): cell-based
In experiment [1] the target is T1, RARα (Homo sapiens, UniProt P10276).
T1 construct: expressed in transfected cells; host or cells: CV-1 (African green monkey kidney fibroblasts)
T1 sequence (P10276 1-462): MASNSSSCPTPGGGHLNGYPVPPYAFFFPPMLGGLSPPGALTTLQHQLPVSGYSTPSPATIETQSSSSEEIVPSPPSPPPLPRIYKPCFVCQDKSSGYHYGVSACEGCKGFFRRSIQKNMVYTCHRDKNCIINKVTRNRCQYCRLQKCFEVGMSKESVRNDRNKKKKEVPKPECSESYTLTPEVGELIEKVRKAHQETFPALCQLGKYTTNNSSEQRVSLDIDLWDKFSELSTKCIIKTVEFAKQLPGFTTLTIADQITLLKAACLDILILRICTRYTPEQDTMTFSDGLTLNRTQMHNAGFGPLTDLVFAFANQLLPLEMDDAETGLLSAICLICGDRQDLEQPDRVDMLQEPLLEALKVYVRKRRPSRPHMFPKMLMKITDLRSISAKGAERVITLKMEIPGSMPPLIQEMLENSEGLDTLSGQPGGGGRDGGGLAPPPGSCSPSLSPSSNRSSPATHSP
Put plainly: Co-transfection assay, RARα agonist activity. Particulars: CV-1 cells, 40 hours; read-out: RARα Pot (potency, EC50).

In experiment [2] the target is T2, RXRα (Homo sapiens, UniProt P19793).
T2 construct: expressed in transfected cells; host or cells: CV-1 (African green monkey kidney fibroblasts)
T2 sequence (P19793 1-462): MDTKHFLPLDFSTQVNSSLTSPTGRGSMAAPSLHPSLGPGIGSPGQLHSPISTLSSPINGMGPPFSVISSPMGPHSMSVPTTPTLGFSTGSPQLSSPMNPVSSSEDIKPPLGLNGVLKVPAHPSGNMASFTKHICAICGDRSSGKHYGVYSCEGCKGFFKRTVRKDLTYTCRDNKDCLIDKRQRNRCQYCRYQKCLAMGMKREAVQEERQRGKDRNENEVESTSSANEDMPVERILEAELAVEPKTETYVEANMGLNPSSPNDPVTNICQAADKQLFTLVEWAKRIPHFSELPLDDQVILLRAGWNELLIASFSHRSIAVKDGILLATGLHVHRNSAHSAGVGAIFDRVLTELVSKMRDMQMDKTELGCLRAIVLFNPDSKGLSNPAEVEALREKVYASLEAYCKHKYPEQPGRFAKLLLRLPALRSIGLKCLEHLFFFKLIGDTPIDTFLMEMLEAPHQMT
The experiment in a line: Co-transfection assay, RXRα agonist activity. Particulars: CV-1 cells, 40 hours; read-out: RXRα Pot (potency, EC50).

Experiment [3] concerns the target T3, RXRβ (Mus musculus, UniProt P28704).
T3 construct: expressed in transfected cells; host or cells: CV-1 (African green monkey kidney fibroblasts)
T3 sequence (P28704 1-520): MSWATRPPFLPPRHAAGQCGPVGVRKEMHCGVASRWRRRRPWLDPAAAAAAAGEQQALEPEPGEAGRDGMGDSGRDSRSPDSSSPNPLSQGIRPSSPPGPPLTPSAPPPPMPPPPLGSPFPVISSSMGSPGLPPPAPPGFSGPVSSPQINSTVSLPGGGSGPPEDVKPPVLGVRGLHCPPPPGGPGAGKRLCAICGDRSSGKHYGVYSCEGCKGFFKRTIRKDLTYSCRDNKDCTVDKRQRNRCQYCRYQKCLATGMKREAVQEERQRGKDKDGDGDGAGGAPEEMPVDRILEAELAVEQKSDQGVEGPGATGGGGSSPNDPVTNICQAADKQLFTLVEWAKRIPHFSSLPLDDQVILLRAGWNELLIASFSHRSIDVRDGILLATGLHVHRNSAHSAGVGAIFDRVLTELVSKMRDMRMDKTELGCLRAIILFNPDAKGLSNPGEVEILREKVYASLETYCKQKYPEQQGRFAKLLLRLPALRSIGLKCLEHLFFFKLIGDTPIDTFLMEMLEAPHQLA
The experiment in a line: Co-transfection assay, RXRβ agonist activity. Particulars: CV-1 cells, 40 hours; read-out: RXRβ Pot (potency, EC50).

Regarding `CC(/C=C/C=C1/CC(C)(C)Oc2cc3c(cc21)C(C)(C)CCC3(C)C)=C\C(=O)O` [Compound 104b, (2E,4E)-3-Methyl-6-(2,3,6,7,8,9-hexahydro-2,2,6,6,9,9-hexamethylbenzo[b]-chromen-4-ylidene)-hexa-2,4-dienoic acid], the concentration for a half-maximal effect (EC50) in experiment [1] was above 10 µM; in experiment [2], 18 nM; in experiment [3], 20 nM.
